± gives the standard deviation of the averaged measurements.
How the values were obtained:
[1] = compound: CCC1=C[C@@H]2CN(C1)Cc1c([nH]c3ccccc13)[C@@](C(=O)OC)(c1cc3c(cc1OC)N(C)[C@H]1[C@@](O)(C(=O)OC)[C@H](OC(C)=O)[C@]4(CC)C=CCN5CC[C@]31[C@@H]54)C2 [VINORELBINE]; assay: surviving fraction relative to DMSO-only wells; higher = less growth inhibition; conditions: exposure time: 5 days
Procedure, shortened: (§1)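 Viability values are CellTiter-Glo luminescence readings, given as surviving fraction against the median of DMSO-only wells. The readings were taken after 10 minutes at room temperature, following five days of continuous exposure to inhibitors at 0.5, 1, 5, 10, 50, 100, 500 and 1000 nM that began 24 hours after log-phase tumour cell lines were seeded at 250–500 cells per well in 384-well plates. Every line was screened three times and kept only if replicate Pearson r >0.7 and median Z' >0.3.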

[2] = compound: CN(Cc1cnc2nc(N)nc(N)c2n1)c1ccc(C(=O)N[C@@H](CCC(=O)O)C(=O)O)cc1 [METHOTREXATE]; assay: as above; conditions: exposure time: 5 days
Procedure, shortened: as §1

Test System | surviving fraction ([1]; 0.5 nM) | surviving fraction ([1]; 1 nM) | surviving fraction ([1]; 5 nM) | surviving fraction ([1]; 10 nM) | surviving fraction ([1]; 50 nM) | surviving fraction ([1]; 100 nM) | surviving fraction ([1]; 500 nM) | surviving fraction ([1]; 1000 nM) | surviving fraction ([2]; 0.5 nM) | surviving fraction ([2]; 1 nM) | surviving fraction ([2]; 5 nM) | surviving fraction ([2]; 10 nM) | surviving fraction ([2]; 50 nM) | surviving fraction ([2]; 100 nM) | surviving fraction ([2]; 500 nM) | surviving fraction ([2]; 1000 nM)
CASKI CERVIX | 0.919 ± 0.041 | 0.911 ± 0.046 | 0.702 ± 0.014 | 0.188 ± 0.027 | 0.0597 ± 0.0076 | 0.087 ± 0.005 | 0.106 ± 0.012 | 0.1 ± 0.0083 | 0.941 ± 0.045 | 0.892 ± 0.058 | 0.946 ± 0.073 | 0.967 ± 0.031 | 0.533 ± 0.019 | 0.2303 ± 0.0015 | 0.192 ± 0.018 | 0.208 ± 0.027
CHLA90 AUTONOMIC GANGLIA | 1.009 ± 0.01 | 1.05 ± 0.036 | 0.951 ± 0.058 | 0.768 ± 0.011 | 0.177 ± 0.023 | 0.105 ± 0.012 | 0.0883 ± 0.012 | 0.0917 ± 0.0061 | 1.037 ± 0.006 | 1.01 ± 0.084 | 1 ± 0.035 | 0.995 ± 0.037 | 1.08 ± 0.11 | 1.13 ± 0.12 | 1.16 ± 0.11 | 1.19 ± 0.033
CME SYNOVIAL | 1.11 ± 0.17 | 1.09 ± 0.11 | 1.21 ± 0.11 | 1.08 ± 0.12 | 0.488 ± 0.098 | 0.355 ± 0.085 | 0.275 ± 0.039 | 0.333 ± 0.033 | 1.2 ± 0.098 | 1.12 ± 0.069 | 0.755 ± 0.15 | 0.558 ± 0.062 | 0.612 ± 0.019 | 0.612 ± 0.034 | 0.561 ± 0.048 | 0.648 ± 0.046
COLO320DM LARGE INTESTINE | 1 ± 0.036 | 1.08 ± 0.059 | 1.06 ± 0.12 | 1.12 ± 0.088 | 1.09 ± 0.047 | 0.9883 ± 0.006 | 0.534 ± 0.022 | 0.293 ± 0.012 | 1.05 ± 0.045 | 1.04 ± 0.02 | 1.09 ± 0.056 | 0.648 ± 0.066 | 0.315 ± 0.011 | 0.315 ± 0.0081 | 0.307 ± 0.0097 | 0.295 ± 0.027
DU4475 BREAST | 0.973 ± 0.088 | 1.01 ± 0.025 | 1.01 ± 0.14 | 0.906 ± 0.095 | 0.403 ± 0.091 | 0.211 ± 0.027 | 0.0703 ± 0.016 | 0.051 ± 0.015 | 0.815 ± 0.2 | 0.988 ± 0.11 | 0.943 ± 0.16 | 0.933 ± 0.11 | 1.02 ± 0.049 | 1.09 ± 0.092 | 1.03 ± 0.13 | 1.01 ± 0.032
H23 LUNG | 1.03 ± 0.046 | 0.9937 ± 0.0096 | 1.04 ± 0.039 | 0.84 ± 0.014 | 0.205 ± 0.015 | 0.173 ± 0.011 | 0.22 ± 0.002 | 0.1743 ± 0.0015 | 1.06 ± 0.054 | 0.996 ± 0.068 | 1.01 ± 0.062 | 0.461 ± 0.084 | 0.254 ± 0.015 | 0.236 ± 0.022 | 0.236 ± 0.016 | 0.222 ± 0.014
HCC38 BREAST | 1.19 ± 0.19 | 1.12 ± 0.3 | 1.24 ± 0.14 | 1.06 ± 0.12 | 0.223 ± 0.039 | 0.216 ± 0.029 | 0.334 ± 0.06 | 0.251 ± 0.0055 | 1.39 ± 0.32 | 1.22 ± 0.13 | 1.37 ± 0.2 | 1.43 ± 0.15 | 1.05 ± 0.28 | 0.803 ± 0.038 | 0.385 ± 0.086 | 0.359 ± 0.032
HCC70 BREAST | 1.04 ± 0.032 | 1.01 ± 0.014 | 0.937 ± 0.042 | 0.752 ± 0.029 | 0.108 ± 0.012 | 0.129 ± 0.013 | 0.131 ± 0.015 | 0.132 ± 0.02 | 1.04 ± 0.079 | 1.14 ± 0.092 | 1.01 ± 0.09 | 1.12 ± 0.046 | 0.842 ± 0.043 | 0.789 ± 0.023 | 0.763 ± 0.025 | 0.787 ± 0.041
HCC78 LUNG | 0.958 ± 0.18 | 0.806 ± 0.26 | 0.877 ± 0.25 | 0.575 ± 0.15 | 0.0987 ± 0.045 | 0.094 ± 0.016 | 0.0637 ± 0.012 | 0.042 ± 0.011 | 1 ± 0.064 | 0.847 ± 0.19 | 0.914 ± 0.12 | 0.831 ± 0.13 | 0.503 ± 0.056 | 0.448 ± 0.058 | 0.421 ± 0.032 | 0.41 ± 0.039
HCC202 BREAST | 1.25 ± 0.24 | 1.21 ± 0.12 | 0.946 ± 0.088 | 0.603 ± 0.14 | 0.383 ± 0.12 | 0.313 ± 0.06 | 0.234 ± 0.056 | 0.205 ± 0.033 | 1.3 ± 0.45 | 1.26 ± 0.38 | 1.21 ± 0.097 | 1 ± 0.25 | 1.14 ± 0.16 | 1.16 ± 0.37 | 0.945 ± 0.21 | 1.15 ± 0.13
